Test results: ChEMBL document CHEMBL4665863 (Bioorg Med Chem, 2020)
Converted amounts (≈) assume the structure as drawn.

Legend:
Type in all cases: functional
Staphylococcus aureus [1] = experiment: Antibacterial activity against methicillin-resistant Staphylococcus aureus ATCC43300 incubated for 24 hrs by CLSI-based broth microdilution method
Escherichia coli = experiment: Antibacterial activity against Escherichia coli ATCC25922 incubated for 24 hrs by CLSI-based broth microdilution method; details: ATCC 25922
Bacillus subtilis = experiment: Antibacterial activity against Bacillus subtilis ATCC9372 incubated for 24 hrs by CLSI-based broth microdilution method
Staphylococcus aureus [2] = experiment: Antibacterial activity against Staphylococcus aureus ATCC25923 incubated for 24 hrs by CLSI-based broth microdilution method
Pseudomonas aeruginosa = experiment: Antibacterial activity against Pseudomonas aeruginosa ATCC27853 incubated for 24 hrs by CLSI-based broth microdilution method
Staphylococcus aureus [3] = experiment: Antibacterial activity against penicillin-resistant Staphylococcus aureus incubated for 24 hrs by CLSI-based broth microdilution method
Bacillus pumilus = experiment: Antibacterial activity against Bacillus pumilus CMCC63202 incubated for 24 hrs by CLSI-based broth microdilution method

SMILES	MIC (Staphylococcus aureus [1])	MIC (Escherichia coli)	MIC (Bacillus subtilis)	MIC (Staphylococcus aureus [2])	MIC (Pseudomonas aeruginosa)	MIC (Staphylococcus aureus [3])	MIC (Bacillus pumilus)
NC(=O)c1c(F)ccc(OCC2=NOC(c3ccc(Br)cc3)C2)c1F (configuration not stated)	32 µg/mL (≈ 77.8 µM)	> 64 µg/mL	8 µg/mL (≈ 19.5 µM)	> 64 µg/mL	> 64 µg/mL	> 64 µg/mL	32 µg/mL (≈ 77.8 µM)
NC(=O)c1c(F)ccc(OCC2CC(c3ccco3)=NO2)c1F (configuration not stated)	> 64 µg/mL	> 64 µg/mL	64 µg/mL (≈ 199 µM)	> 64 µg/mL	> 64 µg/mL	> 64 µg/mL	> 64 µg/mL
COc1cccc(C2CC(COc3ccc(F)c(C(N)=O)c3F)=NO2)c1 (configuration not stated)	> 64 µg/mL	> 64 µg/mL	> 64 µg/mL	> 64 µg/mL	> 64 µg/mL	> 64 µg/mL	> 64 µg/mL
NC(=O)c1c(F)ccc(OCC2CC(c3ccc(F)cc3)=NO2)c1F (configuration not stated)	64 µg/mL (≈ 183 µM)	> 64 µg/mL	8 µg/mL (≈ 22.8 µM)	64 µg/mL (≈ 183 µM)	> 64 µg/mL	64 µg/mL (≈ 183 µM)	32 µg/mL (≈ 91.4 µM)
CCCOc1ccc(C2=NOC(COc3ccc(F)c(C(N)=O)c3F)C2)cc1 (configuration not stated)	> 64 µg/mL	> 64 µg/mL	4 µg/mL (≈ 10.2 µM)	> 64 µg/mL	> 64 µg/mL	> 64 µg/mL	4 µg/mL (≈ 10.2 µM)
NC(=O)c1c(F)ccc(OCC2=NOC(c3ccc(F)cc3)C2)c1F (configuration not stated)	> 64 µg/mL	> 64 µg/mL	16 µg/mL (≈ 45.7 µM)	> 64 µg/mL	> 64 µg/mL	> 64 µg/mL	64 µg/mL (≈ 183 µM)
NC(=O)c1c(F)ccc(OCC2CC(c3ccc(C4CCCCC4)cc3)=NO2)c1F (configuration not stated)	> 64 µg/mL	> 64 µg/mL	> 64 µg/mL	> 64 µg/mL	> 64 µg/mL	> 64 µg/mL	> 64 µg/mL
CC(C)(C)c1ccc(C2CC(COc3ccc(F)c(C(N)=O)c3F)=NO2)cc1 (configuration not stated)	32 µg/mL (≈ 82.4 µM)	> 64 µg/mL	2 µg/mL (≈ 5.15 µM)	64 µg/mL (≈ 165 µM)	> 64 µg/mL	32 µg/mL (≈ 82.4 µM)	4 µg/mL (≈ 10.3 µM)
Cc1cccc(C2CC(COc3ccc(F)c(C(N)=O)c3F)=NO2)c1 (configuration not stated)	> 64 µg/mL	> 64 µg/mL	64 µg/mL (≈ 185 µM)	> 64 µg/mL	> 64 µg/mL	> 64 µg/mL	> 64 µg/mL
CCCOc1ccc(C2CC(COc3ccc(F)c(C(N)=O)c3F)=NO2)cc1 (configuration not stated)	64 µg/mL (≈ 164 µM)	> 64 µg/mL	8 µg/mL (≈ 20.5 µM)	> 64 µg/mL	> 64 µg/mL	> 64 µg/mL	32 µg/mL (≈ 82 µM)
N#Cc1ccc(C2=NOC(COc3ccc(F)c(C(N)=O)c3F)C2)cc1 (configuration not stated)	> 64 µg/mL	> 64 µg/mL	32 µg/mL (≈ 89.6 µM)	> 64 µg/mL	> 64 µg/mL	> 64 µg/mL	> 64 µg/mL
CCOc1ccccc1C1CC(COc2ccc(F)c(C(N)=O)c2F)=NO1 (configuration not stated)	> 64 µg/mL	> 64 µg/mL	> 64 µg/mL	> 64 µg/mL	> 64 µg/mL	> 64 µg/mL	> 64 µg/mL
CCOc1ccc(C2=NOC(COc3ccc(F)c(C(N)=O)c3F)C2)cc1 (configuration not stated)	64 µg/mL (≈ 170 µM)	> 64 µg/mL	4 µg/mL (≈ 10.6 µM)	64 µg/mL (≈ 170 µM)	> 64 µg/mL	> 64 µg/mL	16 µg/mL (≈ 42.5 µM)
COc1ccc(C2=NOC(COc3ccc(F)c(C(N)=O)c3F)C2)cc1 (configuration not stated)	> 64 µg/mL	> 64 µg/mL	8 µg/mL (≈ 22.1 µM)	> 64 µg/mL	> 64 µg/mL	> 64 µg/mL	32 µg/mL (≈ 88.3 µM)
CC(C)c1ccc(C2CC(COc3ccc(F)c(C(N)=O)c3F)=NO2)cc1 (configuration not stated)	64 µg/mL (≈ 171 µM)	> 64 µg/mL	4 µg/mL (≈ 10.7 µM)	64 µg/mL (≈ 171 µM)	> 64 µg/mL	> 64 µg/mL	8 µg/mL (≈ 21.4 µM)
CCc1ccc(C2CC(COc3ccc(F)c(C(N)=O)c3F)=NO2)cc1 (configuration not stated)	64 µg/mL (≈ 178 µM)	> 64 µg/mL	4 µg/mL (≈ 11.1 µM)	64 µg/mL (≈ 178 µM)	> 64 µg/mL	> 64 µg/mL	16 µg/mL (≈ 44.4 µM)
NC(=O)c1c(F)ccc(OCC2CC(c3ccc(Cl)cc3Cl)=NO2)c1F (configuration not stated)	32 µg/mL (≈ 79.8 µM)	> 64 µg/mL	4 µg/mL (≈ 9.97 µM)	16 µg/mL (≈ 39.9 µM)	> 64 µg/mL	32 µg/mL (≈ 79.8 µM)	2 µg/mL (≈ 4.99 µM)
Cc1ccc(C2CC(COc3ccc(F)c(C(N)=O)c3F)=NO2)cc1 (configuration not stated)	> 64 µg/mL	> 64 µg/mL	16 µg/mL (≈ 46.2 µM)	> 64 µg/mL	> 64 µg/mL	> 64 µg/mL	64 µg/mL (≈ 185 µM)
COc1ccccc1C1=NOC(COc2ccc(F)c(C(N)=O)c2F)C1 (configuration not stated)	> 64 µg/mL	> 64 µg/mL	> 64 µg/mL	> 64 µg/mL	> 64 µg/mL	> 64 µg/mL	> 64 µg/mL
NC(=O)c1c(F)ccc(OCC2=NOC(c3cccc(Cl)c3)C2)c1F (configuration not stated)	> 64 µg/mL	> 64 µg/mL	64 µg/mL (≈ 175 µM)	> 64 µg/mL	> 64 µg/mL	> 64 µg/mL	> 64 µg/mL
CCCCCc1ccc(C2=NOC(COc3ccc(F)c(C(N)=O)c3F)C2)cc1 (configuration not stated)	> 64 µg/mL	> 64 µg/mL	0.5 µg/mL (≈ 1.24 µM)	> 64 µg/mL	> 64 µg/mL	> 64 µg/mL	≤ 0.125 µg/mL

SMILES	MIC (Staphylococcus aureus [1])	MIC (Escherichia coli)	MIC (Bacillus subtilis)	MIC (Staphylococcus aureus [2])	MIC (Pseudomonas aeruginosa)	MIC (Staphylococcus aureus [3])	MIC (Bacillus pumilus)
NC(=O)c1c(F)ccc(OCC2CC(c3ccc(Cl)cc3)=NO2)c1F (configuration not stated)	32 µg/mL (≈ 87.3 µM)	> 64 µg/mL	8 µg/mL (≈ 21.8 µM)	32 µg/mL (≈ 87.3 µM)	> 64 µg/mL	32 µg/mL (≈ 87.3 µM)	8 µg/mL (≈ 21.8 µM)
NC(=O)c1c(F)ccc(OCC2=NOC(c3ccccc3Cl)C2)c1F (configuration not stated)	> 64 µg/mL	> 64 µg/mL	16 µg/mL (≈ 43.6 µM)	> 64 µg/mL	> 64 µg/mL	> 64 µg/mL	32 µg/mL (≈ 87.3 µM)
NC(=O)c1c(F)ccc(OCC2CC(c3ccc(Cl)c(Cl)c3)=NO2)c1F (configuration not stated)	> 64 µg/mL	> 64 µg/mL	2 µg/mL (≈ 4.99 µM)	> 64 µg/mL	> 64 µg/mL	> 64 µg/mL	> 64 µg/mL
CCCOc1cccc(C2=NOC(COc3ccc(F)c(C(N)=O)c3F)C2)c1 (configuration not stated)	16 µg/mL (≈ 41 µM)	> 64 µg/mL	4 µg/mL (≈ 10.2 µM)	16 µg/mL (≈ 41 µM)	> 64 µg/mL	32 µg/mL (≈ 82 µM)	2 µg/mL (≈ 5.12 µM)
CCOc1cccc(C2CC(COc3ccc(F)c(C(N)=O)c3F)=NO2)c1 (configuration not stated)	> 64 µg/mL	> 64 µg/mL	64 µg/mL (≈ 170 µM)	> 64 µg/mL	> 64 µg/mL	> 64 µg/mL	> 64 µg/mL
COc1cccc(C2=NOC(COc3ccc(F)c(C(N)=O)c3F)C2)c1 (configuration not stated)	> 64 µg/mL	> 64 µg/mL	8 µg/mL (≈ 22.1 µM)	> 64 µg/mL	> 64 µg/mL	> 64 µg/mL	32 µg/mL (≈ 88.3 µM)
Cc1ccc(C2=NOC(COc3ccc(F)c(C(N)=O)c3F)C2)cc1 (configuration not stated)	32 µg/mL (≈ 92.4 µM)	> 64 µg/mL	16 µg/mL (≈ 46.2 µM)	32 µg/mL (≈ 92.4 µM)	> 64 µg/mL	> 64 µg/mL	16 µg/mL (≈ 46.2 µM)
NC(=O)c1c(F)ccc(OCC2CC(c3ccc4c(c3)OCO4)=NO2)c1F (configuration not stated)	64 µg/mL (≈ 170 µM)	> 64 µg/mL	16 µg/mL (≈ 42.5 µM)	64 µg/mL (≈ 170 µM)	> 64 µg/mL	64 µg/mL (≈ 170 µM)	16 µg/mL (≈ 42.5 µM)
CCOc1ccc(C2CC(COc3ccc(F)c(C(N)=O)c3F)=NO2)cc1 (configuration not stated)	64 µg/mL (≈ 170 µM)	> 64 µg/mL	16 µg/mL (≈ 42.5 µM)	> 64 µg/mL	> 64 µg/mL	> 64 µg/mL	64 µg/mL (≈ 170 µM)
NC(=O)c1c(F)ccc(OCC2CC(c3cccc(Cl)c3)=NO2)c1F (configuration not stated)	32 µg/mL (≈ 87.3 µM)	> 64 µg/mL	2 µg/mL (≈ 5.45 µM)	16 µg/mL (≈ 43.6 µM)	> 64 µg/mL	32 µg/mL (≈ 87.3 µM)	8 µg/mL (≈ 21.8 µM)
CC(C)c1ccc(C2=NOC(COc3ccc(F)c(C(N)=O)c3F)C2)cc1 (configuration not stated)	4 µg/mL (≈ 10.7 µM)	> 64 µg/mL	≤ 0.125 µg/mL	4 µg/mL (≈ 10.7 µM)	> 64 µg/mL	16 µg/mL (≈ 42.7 µM)	≤ 0.125 µg/mL
Cc1cccc(C2=NOC(COc3ccc(F)c(C(N)=O)c3F)C2)c1 (configuration not stated)	16 µg/mL (≈ 46.2 µM)	> 64 µg/mL	16 µg/mL (≈ 46.2 µM)	32 µg/mL (≈ 92.4 µM)	> 64 µg/mL	64 µg/mL (≈ 185 µM)	8 µg/mL (≈ 23.1 µM)
NC(=O)c1c(F)ccc(OCC2CC(c3ccccc3)=NO2)c1F (configuration not stated)	> 64 µg/mL	> 64 µg/mL	16 µg/mL (≈ 48.1 µM)	> 64 µg/mL	> 64 µg/mL	> 64 µg/mL	64 µg/mL (≈ 193 µM)
CCOc1cccc(C2=NOC(COc3ccc(F)c(C(N)=O)c3F)C2)c1 (configuration not stated)	32 µg/mL (≈ 85 µM)	> 64 µg/mL	4 µg/mL (≈ 10.6 µM)	32 µg/mL (≈ 85 µM)	> 64 µg/mL	32 µg/mL (≈ 85 µM)	8 µg/mL (≈ 21.3 µM)
CCc1ccc(C2=NOC(COc3ccc(F)c(C(N)=O)c3F)C2)cc1 (configuration not stated)	8 µg/mL (≈ 22.2 µM)	> 64 µg/mL	0.5 µg/mL (≈ 1.39 µM)	8 µg/mL (≈ 22.2 µM)	> 64 µg/mL	16 µg/mL (≈ 44.4 µM)	2 µg/mL (≈ 5.55 µM)
CCCCc1ccc(C2CC(COc3ccc(F)c(C(N)=O)c3F)=NO2)cc1 (configuration not stated)	4 µg/mL (≈ 10.3 µM)	> 64 µg/mL	≤ 0.125 µg/mL	8 µg/mL (≈ 20.6 µM)	> 64 µg/mL	4 µg/mL (≈ 10.3 µM)	0.5 µg/mL (≈ 1.29 µM)
NC(=O)c1c(F)ccc(OCC2CC(c3ccc(Br)cc3)=NO2)c1F (configuration not stated)	32 µg/mL (≈ 77.8 µM)	> 64 µg/mL	2 µg/mL (≈ 4.86 µM)	32 µg/mL (≈ 77.8 µM)	> 64 µg/mL	32 µg/mL (≈ 77.8 µM)	4 µg/mL (≈ 9.73 µM)
NC(=O)c1c(F)ccc(OCC2CC(c3ccccc3Cl)=NO2)c1F (configuration not stated)	> 64 µg/mL	> 64 µg/mL	16 µg/mL (≈ 43.6 µM)	> 64 µg/mL	> 64 µg/mL	> 64 µg/mL	64 µg/mL (≈ 175 µM)
NC(=O)c1c(F)ccc(OCC2=NOC(c3ccc(Cl)cc3)C2)c1F (configuration not stated)	32 µg/mL (≈ 87.3 µM)	> 64 µg/mL	4 µg/mL (≈ 10.9 µM)	64 µg/mL (≈ 175 µM)	> 64 µg/mL	64 µg/mL (≈ 175 µM)	16 µg/mL (≈ 43.6 µM)
NC(=O)c1c(F)ccc(OCC2=NOC(c3ccc(Cl)c(Cl)c3)C2)c1F (configuration not stated)	> 64 µg/mL	> 64 µg/mL	16 µg/mL (≈ 39.9 µM)	> 64 µg/mL	> 64 µg/mL	> 64 µg/mL	> 64 µg/mL
